Source: article PMC6829886, “Inhibition of Non-Small Cell Lung Cancer Cells by Oxy210, an Oxysterol-Derivative that Antagonizes TGFβ and Hedgehog Signaling” (Cells, 2019)

What was measured:
A549 cells = test: TGFβ-induced drug resistance (carboplatin) assay, cell counting; assay type: cell-based, human; conditions: TGFβ1 ± Oxy210 (5 μM) 3 days, then 20 μM CP 4 days
Procedure: A549 and H2030 cells cultured in RPMI 1640 containing 5% FBS in 12 well-plates at 20% confluence were treated with Oxy210 for 6 days and then trypsinized, spun down and resuspended in fresh medium. For the Carboplatin (CP) and Oxy210 co-treatment experiments, A549 cells cultured in RPMI 1640 containing 2% FBS in 12 well-plates at 20% confluence were treated with CP at different concentrations in the presence or absence of Oxy210 for 6 days. For the TGFβ-induced drug resistance assay, A549 cells cultured in RPMI 1640 containing 2% FBS in 12 well-plates at 10% confluence were pre-treated with TGFβ1 alone or together with Oxy210 for 3 days, and then treated with 20 μM CP for 4 days. An aliquot of cell suspension was applied to a hemocytometer and the cells were then counted under a light microscope.
Figure 10 Effect of Oxy210 on TGFβ-induced resistance to carboplatin. A549 cells were treated with the agents as indicated (in front of --) in RPMI 1640 containing 2% FBS for 3 days, and then treated with the agents as indicated (after --) for 4 days. The cells were then trypsinized and counted. Data from a representative experiment are reported as the mean of triplicate determinations ± SD (## p < 0.01 vs. Control--Control; ++ p < 0.01 vs. Control--CP; ** p < 0.01 vs. TGFβ--CP).

Human TGFBR1 = molecular target: T1, Human TGFBR1 (Homo sapiens, UniProt P36897); test: TGFβ receptor I kinase inhibition assay (Eurofins); assay type: biochemical; conditions: vs. positive controls Cdk1/2 Inhibitor III and PKR Inhibitor
T1 construct: Human TGFBR1 (amino acid 200 to end); purchased Eurofins
T1 sequence (P36897 200-503 limits assumed): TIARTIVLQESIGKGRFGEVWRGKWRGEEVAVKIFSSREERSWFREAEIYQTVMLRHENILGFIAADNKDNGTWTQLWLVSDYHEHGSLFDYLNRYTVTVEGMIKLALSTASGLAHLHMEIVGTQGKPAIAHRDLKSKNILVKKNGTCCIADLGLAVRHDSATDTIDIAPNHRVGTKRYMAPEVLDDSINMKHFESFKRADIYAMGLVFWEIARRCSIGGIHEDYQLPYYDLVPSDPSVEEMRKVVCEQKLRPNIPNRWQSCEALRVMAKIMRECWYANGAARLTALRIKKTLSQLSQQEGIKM
Procedure: Effect of Oxy210 on inhibition of TGFβ receptors I and II kinase activity was assessed by Eurofins (Celle-L’Evescault, France). TGFBR1 (h): Human TGFBR1 (amino acid 200 to end) was incubated with 8 mM MOPS pH 7.0, 0.2 mM EDTA, 1 mM MnCl2, 2 mg/mL casein, 10 mM Magnesium acetate and […] (specific activity and concentration as required). The reaction was initiated by the addition of the Mg/ATP mix. After incubation for 40 min at room temperature, the reaction was stopped by the addition of phosphoric acid to a concentration of 0.5%. 10 μL of the reaction was then spotted onto a P30 filtermat and washed four times for 4 min in 0.425% phosphoric acid and once in methanol prior to drying and scintillation counting. TGFBR2 (h): Human TGFBR2 (amino acid 188-end) was incubated with 20 mM Tris/HCl pH 8.5, 0.2 mM EDTA, 0.33 mg/mL MBP, 10 mM Magnesium acetate and [9-33P-ATP] (specific activity and concentration as required). The reaction was initiated by the addition of the Mg/ATP mix. After incubation for 120 min at room temperature, the reaction was stopped by the addition of phosphoric acid to a concentration of 0.5%. […]
Figure 11 Inhibition of TGFβ-induced Smad2/3 phosphorylation and transcriptional activity. […] Luciferase activity was measured and normalized to the Renilla luciferase activity. […]

C[C@]12CC[C@H]3[C@@H](CC=C4C[C@@H](O)CC[C@@]43C)[C@@H]1CC[C@@H]2[C@](C)(O)CCc1cccnc1 [Oxy210, (3S,8S,9S,10R,13S,14S,17S)-17-((R)-2-hydroxy-4-(pyridin-3-yl)butan-2-yl)-10,13-dimethyl-2,3,4,7,8,9,10,11,12,13,14,15,16,17-tetradecahydro-1H-cyclopenta[a]phenanthren-3-ol]
sensitivity to CP after TGFβ1 pre-treatment (TGFβ-induced CP resistance) (A549 cells): fully restored CP drug sensitivity
inhibitory activity on TβRI in functional kinase assay (Human TGFBR1): did not display significant inhibitory activity
